Patent US11826351B2, “Compounds useful as kinase inhibitors” (Loxo Oncology, Inc., priority 2015, dated 2023)

Legend:
[1] = tested on: OCI-Ly10 human DLBCL cells; experiment: OCI-Ly10 anti-proliferative activity (Resazurin); format: cell-based; details: Homo sapiens, OCI-Ly10, 72 h, OCI-Ly10 cells, 72 h compound treatment, Resazurin; read-out: Proliferation Assay OCI-Ly10-20% FBS
How it was run: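 OCI-Ly10 human DLBCL cells, whose growth depends on NFκB signalling, were seeded at 7.5×10^3 cells per well in 96-well plates with a range of compound concentrations and kept at 37° C for 72 h. Resazurin was then added, and after 5 h fluorescence was read at 590 nm.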

[2] = target: T1, Recombinant BTK^C481S kinase (Homo sapiens, UniProt Q06187, C481S); experiment: BTK C481S binding affinity (LanthaScreen TR-FRET); details: Kinase Tracer 236, 5 h incubation
T1 construct: purchased SignalChem
How it was run: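 BTK C481S tracer-displacement TR-FRET: 5 nM His-tagged kinase, 2 nM Eu anti-His antibody and 30 nM Kinase Tracer 236 incubated with titrated inhibitor for 5 h in Kinase Buffer A. Read at 340 nm excitation, 615/665 nm emission; IC50 from variable-slope log[inhibitor]–response fit.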

[3] = target: T2, Recombinant BTK^WT kinase (Homo sapiens, UniProt Q06187); experiment: BTK WT binding affinity (LanthaScreen TR-FRET); details: Kinase Tracer 236, 5 h incubation
T2 construct: purchased Invitrogen
How it was run: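 Tracer-displacement TR-FRET: 2.5 nM recombinant BTK^WT, 2 nM Eu anti-His antibody and 15 nM Kinase Tracer 236 incubated with varying inhibitor concentrations for 5 h in Kinase Buffer A. Signal read at 340 nm excitation, 615/665 nm emission; IC50 from variable-slope log[inhibitor]–response fit.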

Recombinant EGFR = target: T3, Recombinant EGFR (Homo sapiens, UniProt P00533); experiment: EGFR binding affinity (LanthaScreen TR-FRET); details: Kinase Tracer 199, 5 h incubation
T3 construct: purchased Invitrogen
How it was run: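 TR-FRET binding (LanthaScreen) with recombinant EGFR; signal measured across a compound concentration range. IC50 obtained by fitting RFU against log[inhibitor] to a variable-slope model.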

T1 sequence (Q06187 whole entry C481S): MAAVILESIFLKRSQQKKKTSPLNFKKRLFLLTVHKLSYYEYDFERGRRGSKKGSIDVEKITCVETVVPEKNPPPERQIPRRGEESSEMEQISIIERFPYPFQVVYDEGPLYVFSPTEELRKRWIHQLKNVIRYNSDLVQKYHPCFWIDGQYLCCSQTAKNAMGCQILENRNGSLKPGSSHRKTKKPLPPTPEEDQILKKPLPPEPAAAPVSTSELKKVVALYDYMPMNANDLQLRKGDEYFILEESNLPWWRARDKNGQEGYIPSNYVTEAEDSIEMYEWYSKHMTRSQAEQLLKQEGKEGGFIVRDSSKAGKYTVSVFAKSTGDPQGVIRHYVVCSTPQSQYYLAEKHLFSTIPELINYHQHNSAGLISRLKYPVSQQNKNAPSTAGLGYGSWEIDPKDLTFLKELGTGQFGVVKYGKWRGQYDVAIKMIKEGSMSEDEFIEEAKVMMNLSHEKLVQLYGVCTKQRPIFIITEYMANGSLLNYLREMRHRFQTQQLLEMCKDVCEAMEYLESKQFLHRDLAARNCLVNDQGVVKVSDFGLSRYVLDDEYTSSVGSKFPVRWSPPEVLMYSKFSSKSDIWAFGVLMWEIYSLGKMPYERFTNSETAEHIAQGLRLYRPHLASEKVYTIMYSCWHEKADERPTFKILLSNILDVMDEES
T3 sequence (P00533 25-1210): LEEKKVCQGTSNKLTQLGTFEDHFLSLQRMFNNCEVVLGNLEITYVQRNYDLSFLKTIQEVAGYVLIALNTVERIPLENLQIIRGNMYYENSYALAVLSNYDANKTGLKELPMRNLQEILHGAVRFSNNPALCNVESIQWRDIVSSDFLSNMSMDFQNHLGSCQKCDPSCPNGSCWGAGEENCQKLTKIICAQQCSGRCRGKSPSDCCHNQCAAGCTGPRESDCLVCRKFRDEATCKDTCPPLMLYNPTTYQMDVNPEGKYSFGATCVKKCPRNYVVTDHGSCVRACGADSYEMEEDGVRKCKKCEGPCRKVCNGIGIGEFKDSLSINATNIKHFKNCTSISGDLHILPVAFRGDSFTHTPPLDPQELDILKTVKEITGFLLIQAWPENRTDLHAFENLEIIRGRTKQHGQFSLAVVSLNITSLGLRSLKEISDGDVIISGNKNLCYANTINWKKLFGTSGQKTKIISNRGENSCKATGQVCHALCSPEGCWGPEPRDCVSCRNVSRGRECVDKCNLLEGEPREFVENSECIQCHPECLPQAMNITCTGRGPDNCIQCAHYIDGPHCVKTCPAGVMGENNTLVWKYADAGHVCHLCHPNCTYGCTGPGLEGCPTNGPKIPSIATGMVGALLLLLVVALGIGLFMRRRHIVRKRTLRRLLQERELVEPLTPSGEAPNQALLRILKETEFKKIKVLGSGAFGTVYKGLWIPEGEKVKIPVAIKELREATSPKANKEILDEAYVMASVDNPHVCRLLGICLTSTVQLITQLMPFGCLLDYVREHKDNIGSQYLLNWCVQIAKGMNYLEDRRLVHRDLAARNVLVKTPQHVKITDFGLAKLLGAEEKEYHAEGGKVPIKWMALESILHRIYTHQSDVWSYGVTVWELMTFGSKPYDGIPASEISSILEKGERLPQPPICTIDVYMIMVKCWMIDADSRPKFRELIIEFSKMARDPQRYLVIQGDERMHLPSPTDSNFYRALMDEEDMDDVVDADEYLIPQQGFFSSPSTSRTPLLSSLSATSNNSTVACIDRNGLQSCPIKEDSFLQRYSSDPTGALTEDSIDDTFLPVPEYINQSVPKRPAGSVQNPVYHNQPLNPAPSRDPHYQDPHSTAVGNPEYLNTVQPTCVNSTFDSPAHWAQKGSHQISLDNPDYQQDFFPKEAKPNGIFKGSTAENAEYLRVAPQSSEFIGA
T2 sequence (Q06187 whole entry): as the sequence (Q06187 whole entry C481S) above, with S481C counted along it

IC50 [1] [µM]	IC50 [2] [µM]	IC50 [3] [µM]	IC50 (Recombinant EGFR) [µM]	SMILES
0.1 to 1	< 0.01	< 0.01	1 to 10	COc1ccc(F)cc1C(=O)NCc1ccc(-c2nn([C@@H]3CCCOC3)c(N)c2C(N)=O)cc1 [Example 183, 5-amino-3-[4-[[(5-fluoro-2-methoxy-benzoyl)amino]methyl]phenyl]-1-[(3R)-tetrahydropyran-3-yl]pyrazole-4-carboxamide]
0.1 to 1	< 0.01	< 0.01	> 10	COc1ccccc1C(=O)NCc1ccc(-c2nn(C3CCCOC3)c(N)c2C(N)=O)c(F)c1 (stereo not drawn) [Example 102, 5-amino-3-[2-fluoro-4-[[(2-methoxybenzoyl)amino]methyl]phenyl]-1-tetrahydropyran-3-yl-pyrazole-4-carboxamide]
0.01 to 0.1	< 0.01	< 0.01	1 to 10	CCn1nc(-c2ccc(CNC(=O)c3cc(F)ccc3OC)cc2)c(C(N)=O)c1N [Example 195, 5-amino-1-ethyl-3-[4-[[(5-fluoro-2-methoxy-benzoyl)amino]methyl]phenyl]pyrazole-4-carboxamide]
